In patent publication US20070202502A1, “Assay For Bipolar Affective Disorder” (priority 2004, published 2007):
“Also recorded” adds a separate entry of the source.

Tested on: mouse FAT mRNA
Assay: FAT mRNA expression in whole brain of mice treated with lithium or valproate, quantitative real-time PCR
Conditions: C57B16 mice, intraperitoneal once daily for 7 days (lithium 340 mg/kg/day; valproate 350 mg/kg/day)

CCCC(CCC)C(=O)O [valproate, 2-propylpentanoic acid]
effect on relative FAT mRNA expression level (relative to GAPDH mRNA): appear to reduce; also recorded: appears to be reduced
